Literature values, collected in patent publication US20210290432A1, “KIT FOR PRODUCING KERATOCONJUNCTIVAL COVER SHEET AND METHOD FOR PRODUCING KERATOCONJUNCTIVAL COVER SHEET” (OSAKA UNIVERSITY, priority 2016, published 2021).

solubility in water: poorly soluble in water
Compound: O=C(NC(Cc1cc(=O)[nH]c2ccccc12)C(=O)O)c1ccc(Cl)cc1 (stereo not shown) [Rebamipide, rebamipide]
